Experiments:
group of experts [1] = experiment: Intensification of the sweet impression of a sugar solution (sensory panel rating); type: in vivo
Excerpt: In order to quantify the intensification of the sweet impression, in each case the sweetness of a 5% sucrose solution was compared by a group of experts with a specimen containing 5% sucrose and 1 ppm, 5 ppm, 7 ppm or 10 ppm of the hesperetin dihydrochalcone (I) to be used according to the invention (rating: 1 [not sweet] to 10 [extremely sweet]). For comparison issues, the intensification of the sweet impression containing with a specimen containing 5% sucrose and 10 ppm or 25 ppm deoxy hesperetin dihydrochalcone is also included.
For the assessment, i.e. calculation of the intensification (in %) of the sweet impression in each case the average values of the assessments of the group of experts for the sucrose solution and the specimen for comparison containing sucrose and hesperetin dihydrochalcone (I) or deoxy hesperetin dihydrochalcone were used.

group of experts [2] = experiment: Bitter-reduction of a bitter substance solution (sensory panel rating); type: in vivo; settings: for Bitter impression of bitter substance + compound (I) (average values): n=18
Excerpt: In order to quantify the decrease (i.e. the masking or reduction) in bitter impression in a specimen, the bitterness of a solution containing different bitter tasting substances in specific concentrations was compared by a group of experts (n=18) in each case with a specimen having an equivalent composition and additionally a specific concentration of hesperetin dihydrochalcone (I) (rating: 1 [not bitter] to 100 [extremely bitter]).
For the assessment, i.e. the calculation of the reduction (in %) of the bitter impression in each case the average values of the assessments of the group of experts for the respective bitter substance solution and the bitter substance solution also containing 10 ppm hesperetin dihydrochalcone (I) were used (*sign.lev. α=0.05). For comparison issues, the calculation of the reduction (in %) of the bitter impression for the respective bitter substance solution containing deoxy hesperetin dihydrochalcone is also included.

[3] = in soft drinks; purity>90%; cited from earlier work
group of experts [4] = experiment: Modification of the sweet profile of a sucrose solution (sensory panel); type: in vivo; settings: for Beginning of sweet impression (<2 sec) / Overall sweet impression / Sugar full flavour and taste: n=12
Excerpt: The taste profile of a 7 wt % aqueous sucrose solution was compared with by a group of experts (n=12) in each case with a specimen having an equivalent composition and additionally a 1.5% sucrose (B), 5 ppm, 7 ppm or 20 ppm hesperetin dihydrochalcone (I).

[5] = J. Chem. Senses 1979, 4(1), 35-47; cited from earlier work
group of 30 experts = experiment: Intrinsic sweetness, two-alternative forced choice (2AFC) test; type: in vivo; settings: 10 ppm in water, α=0.05
Excerpt: A group of 30 experts were asked in a two-alternative forced choice (2AFC) test to select the solution with the stronger sweet impression from a couple of solutions. The evaluated solutions-couples are selected from a group of solutions consisting of a solution of hesperetin dihydrochalcone (I) in water (20 ppm, 15 ppm, 12.5 ppm, and 10 ppm) and a 1.5 wt % aqueous sucrose solution.

group of experts [6] = experiment: Modulation of the cooling-profile of WS-3 (sensory panel); type: in vivo; settings: 1 ppm added to aqueous solution of 5 wt % sucrose and 4 ppm WS-3; n=5
Excerpt: A group of experts (n=5) evaluated the influence on the cooling profile of an aqueous solution containing 5 wt % sucrose and 4 ppm WS-3.

group of experts [7] = experiment: Improvement of the taste profile of chicken flavour (sensory panel); type: in vivo; settings: addition of 2 ppm; n=3
Excerpt: A group of experts (n=3) evaluated the influence on the taste profile of a chicken flavour with the typical descriptors of chicken meat note, boiled note, bony, light sour by the addition of 2 ppm hesperetin dihydrochalcone (I).

[8] = in the presence of acids; cited from earlier work
[9] = 5% sucrose + 10 ppm test substance
[10] = 5% sucrose + 10 ppm test substance, rating 1 to 10
[11] = 7% Sucrose-solution + 1.5% Sucrose (=8.5% sucrose solution)
[12] = 7 wt % aqueous sucrose solution

deoxy hesperetin dihydrochalcone [reference compound]
Intensification of the sweet impression (group of experts [1]; [9]): 21.2%
Sweet impression (1-10) Specimen (Sucrose + Test substance) (group of experts [1]; [10]): 6.4
Intensification of the sweet impression (group of experts [1]; 5% sucrose + 25 ppm test substance): 42%
Sweet impression (1-10) Specimen (Sucrose + Test substance) (group of experts [1]; 5% sucrose + 25 ppm test substance, rating 1 to 10): 6.9
Reduction in bitter impression by adding 50 ppm of deoxy hesperetin dihydrochalcone (group of experts [2]; 5 ppm Chininhydrochloride): +10.7%
Reduction of the bitter impression of Chininhydrochloride (in words) (group of experts [2]; 50 ppm): no reduction
Amount necessary, as factor of the amount of hesperetin dihydrochalcone (I), to obtain a similar reduction of the bitter impression (group of experts [2]; 50 ppm versus 10 ppm): 5
Reduction in bitter impression by adding 50 ppm of deoxy hesperetin dihydrochalcone (group of experts [2]; 100 ppm Naringin): −6.6%
Reduction in bitter impression by adding 50 ppm of deoxy hesperetin dihydrochalcone (group of experts [2]; 250 ppm Salicin): −15.2%
Reduction in bitter impression by adding 50 ppm of deoxy hesperetin dihydrochalcone (group of experts [2]; 500 ppm Coffeine): −11.3%

C=C1C[C@@]23CC[C@H]4[C@@](C)(CCC[C@@]4(C)C(=O)O[C@@H]4O[C@H](CO)[C@@H](O)[C@H](O)[C@H]4O)[C@@H]2CC[C@]1(O[C@@H]1O[C@H](CO)[C@@H](O)[C@H](O[C@@H]2O[C@H](CO)[C@@H](O)[C@H](O)[C@H]2O)[C@H]1O[C@@H]1O[C@H](CO)[C@@H](O)[C@H](O)[C@H]1O)C3 [rebaudioside A]
Concentration necessary to achieve a sweetness corresponding to a concentration of sucrose of 10% by weight [3]: 400-600 ppm

OC[C@H]1O[C@@](CO)(O[C@H]2O[C@H](CO)[C@@H](O)[C@H](O)[C@H]2O)[C@@H](O)[C@@H]1O [Sucrose, sucrose, reference compound]
Beginning of sweet impression (<2 sec) (group of experts [4]; [11]): 5.74
Overall sweet impression (group of experts [4]; [11]): 6.36
Sugar full flavour and taste (group of experts [4]; [11]): 5.17

COc1ccc(CCC(=O)c2ccccc2O)cc1O [dihydrochalcone (2)]
Taste (sweetening power) as presented in the publication [5]: intensively sweet tasting

COc1ccc(CCC(=O)c2c(O)cc(O)cc2O)cc1O [hesperetin dihydrochalcone (I), 3-(3-Hydroxy-4-methoxy-phenyl)-1-(2,4,6-trihydroxyphenyl)propan-1-one]
Beginning of sweet impression (<2 sec) (group of experts [4]; 7% Sucrose-solution + 5 ppm): 4.63
Overall sweet impression (group of experts [4]; 7% Sucrose-solution + 5 ppm): 5.24
Sugar full flavour and taste (group of experts [4]; 7% Sucrose-solution + 5 ppm): 4.26
Beginning of sweet impression (<2 sec) (group of experts [4]; 7% Sucrose-solution + 7 ppm): 4.78
Overall sweet impression (group of experts [4]; 7% Sucrose-solution + 7 ppm): 5.93
Sugar full flavour and taste (group of experts [4]; 7% Sucrose-solution + 7 ppm): 4.42
Beginning of sweet impression (<2 sec) (group of experts [4]; 7% Sucrose-solution + 20 ppm): 4.49
Overall sweet impression (group of experts [4]; 7% Sucrose-solution + 20 ppm): 4.90
Sugar full flavour and taste (group of experts [4]; 7% Sucrose-solution + 20 ppm): 4.11
Effect on the overall sweet impression (in words) (group of experts [4]; [12]): increases
Influence on the beginning of sweet impression (sweet impact) and the perceived sugar full flavour and taste (in words) (group of experts [4]; [12]): positive influence
Sweet impression compared to the 1.5 wt % aqueous sucrose solution (group of 30 experts): remarkably weaker
Cooling effect (in words) (group of experts [6]): slightly improvement
Perception of cooling impression (in words) (group of experts [6]): faster
Intensification of the sweet impression (group of experts [1]; 5% sucrose + 1 ppm test substance): 14.1%
Sweet impression (1-10) Specimen (Sucrose + Test substance) (group of experts [1]; 5% sucrose + 1 ppm test substance, rating 1 [not sweet] to 10 [extremely sweet]): 6.1
Intensification of the sweet impression (group of experts [1]; 5% sucrose + 5 ppm test substance): 32.6%
Sweet impression (1-10) Specimen (Sucrose + Test substance) (group of experts [1]; 5% sucrose + 5 ppm test substance, rating 1 to 10): 7.1
Intensification of the sweet impression (group of experts [1]; 5% sucrose + 7 ppm test substance): 35.7%
Sweet impression (1-10) Specimen (Sucrose + Test substance) (group of experts [1]; 5% sucrose + 7 ppm test substance, rating 1 to 10): 7.3
Intensification of the sweet impression (group of experts [1]; [9]): 38.6%
Sweet impression (1-10) Specimen (Sucrose + Test substance) (group of experts [1]; [10]): 7.8
Intensification of the sweet impression compared to 10 ppm deoxy hesperetin dihydrochalcone (in words) (group of experts [1]; 5 ppm, 5% sucrose): clearly higher
Intensification of the sweet impression compared to the same amount of deoxy hesperetin dihydrochalcone (in words) (group of experts [1]; 10 ppm, 5% sucrose): remarkable intensification
Influence on the taste profile of chicken flavour (chicken meat note, boiled note, bony, light sour) (group of experts [7]): without a negative influence
Mouth fullness of chicken flavour (in words) (group of experts [7]): remarkably enhance
Reduction in bitter impression by adding 10 ppm of compound (I) (group of experts [2]; 5 ppm Chininhydrochloride): −25.0%
Bitter impression of bitter substance + compound (I) (average values) (group of experts [2]; 5 ppm Chininhydrochloride + 10 ppm compound (I), rating 1 to 100): 29.05
Reduction of the bitter impression of Chininhydrochloride (in words) (group of experts [2]; 10 ppm): remarkable reduction
Bitter impression of bitter substance + compound (I) (average values) (group of experts [2]; 100 ppm Naringin + 10 ppm compound (I), rating 1 to 100): 46.54
Reduction in bitter impression by adding 10 ppm of compound (I) (group of experts [2]; 100 ppm Naringin, * sign.lev. α=0.05): −21.5%*
Bitter impression of bitter substance + compound (I) (average values) (group of experts [2]; 250 ppm Salicin + 10 ppm compound (I), rating 1 to 100): 51.40
Reduction in bitter impression by adding 10 ppm of compound (I) (group of experts [2]; 250 ppm Salicin, * sign.lev. α=0.05): −17.6%*
Reduction in bitter impression by adding 10 ppm of compound (I) (group of experts [2]; 300 ppm Theobromine): −12.4%
Bitter impression of bitter substance + compound (I) (average values) (group of experts [2]; 300 ppm Theobromine + 10 ppm compound (I), rating 1 to 100): 45.01
Reduction in bitter impression by adding 10 ppm of compound (I) (group of experts [2]; 500 ppm Coffeine): −13.8%
Bitter impression of bitter substance + compound (I) (average values) (group of experts [2]; 500 ppm Coffeine + 10 ppm compound (I), rating 1 [not bitter] to 100 [extremely bitter]): 37.46
Reduction of the bitter impression of Naringin compared to deoxy hesperetin dihydrochalcone (in words) (group of experts [2]; Naringin, 10 ppm versus 50 ppm deoxy hesperetin dihydrochalcone): notable increase in the reduction of the bitter impression

COc1ccc(CCC(=O)c2c(O)cccc2O)cc1O [dihydrochalcone (3)]
Taste (sweetening power) as presented in the publication [5]: tasteless

B1: miraculin (protein, UniProt P13087 30-220, looked up)
Miraculin: DSAPNPVLDIDGEKLRTGTNYYIVPVLRDHGGGLTVSATTPNGTFVCPPRVVQTRKEVDHDRPLAFFPENPKEDVVRVSTDLNINFSAFMPCRWTSSTVWRLDKYDESTGQYFVTIGGVKGNPGPETISSWFKIEEFCGSGFYKLVFCPTVCGSCKVKCGDVGIYIDQKGRRRLALSDKPFAFEFNKTVYF
notes: protein that in the presence of acids transforms the sour impression into a sweet taste impression
Duration of the effect (sour impression transformed into sweet taste impression) [8]: 2 to 4 h

Reference: US10702484B2, “Use of 3-(3-hydroxy-4-methoxy-phenyl)-1-(2,4,6-trihydroxy-phenyl) propan-1-one” (SYMRISE AG, priority 2016, dated 2020)
